Test results from PubChem BioAssay AID1963874 (Molecular Pharmacology Branch, DTP, NCI, 2024).
Values joined by “and” are separate entries in the source; they are usually repeats but may differ in a detail not shown here. Identical values can stand only once.

Test system: 253994-281-T-J1-PDC KRAS-mutant spheroids with HUVEC/MSC, viability
Test: Anticancer human tumor 253994-281-T-J1-PDC patient-derived colorectal carcinoma cell line growth inhibition [KRAS2]
Conditions: for viability, T/C: stronger effect = lower value
Procedure, shortened: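 KRAS-mutant tumor cells were grown as spheroids with HUVEC endothelial cells and human MSCs as stroma. Targeted agents were tested alone and with KRAS pathway inhibitors. Doses started at or near clinical Cmax, or 10 microM, descending half-log.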

[1] = curve of first compound, second compound 0.1 µM
[2] = curve of first compound, second compound 0.316 µM
[3] = curve of first compound, second compound 1 µM
[4] = curve of first compound, second compound 3.16 µM
[5] = curve of first compound, second compound 10 µM
[6] = second compound 0.1 µM, first compound 0.0316 µM
[7] = second compound 0.1 µM, first compound 0.1 µM
[8] = second compound 0.1 µM, first compound 0.316 µM
[9] = second compound 0.1 µM, first compound 1 µM
[10] = second compound 0.1 µM, first compound 3.16 µM
[11] = second compound 0.1 µM, first compound 10 µM
[12] = second compound 0.316 µM, first compound 0.0316 µM
[13] = second compound 0.316 µM, first compound 0.1 µM
[14] = second compound 0.316 µM, first compound 0.316 µM
[15] = second compound 0.316 µM, first compound 1 µM
[16] = second compound 0.316 µM, first compound 3.16 µM
[17] = second compound 0.316 µM, first compound 10 µM
[18] = second compound 1 µM, first compound 0.0316 µM
[19] = second compound 1 µM, first compound 0.1 µM
[20] = second compound 1 µM, first compound 0.316 µM
[21] = second compound 1 µM, first compound 1 µM
[22] = second compound 1 µM, first compound 3.16 µM
[23] = second compound 1 µM, first compound 10 µM
[24] = second compound 3.16 µM, first compound 0.0316 µM
[25] = second compound 3.16 µM, first compound 0.1 µM
[26] = second compound 3.16 µM, first compound 0.316 µM
[27] = second compound 3.16 µM, first compound 1 µM
[28] = second compound 3.16 µM, first compound 3.16 µM
[29] = second compound 3.16 µM, first compound 10 µM
[30] = second compound 10 µM, first compound 0.0316 µM
[31] = second compound 10 µM, first compound 0.1 µM
[32] = second compound 10 µM, first compound 0.316 µM
[33] = second compound 10 µM, first compound 1 µM
[34] = second compound 10 µM, first compound 3.16 µM
[35] = second compound 10 µM, first compound 10 µM
[36] = second compound 0.1 µM, first compound 0.01 µM
[37] = second compound 0.316 µM, first compound 0.01 µM
[38] = second compound 1 µM, first compound 0.01 µM
[39] = second compound 3.16 µM, first compound 0.01 µM
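Note: spheroids exposed to agents for seven days before readout.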
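Throughout, for viability, T/C: percent of DMSO vehicle control viability.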

| SMILES | IC50 [1] | IC50 [2] | IC50 [3] | IC50 [4] | viability, T/C [6] | viability, T/C [7] | viability, T/C [8] | viability, T/C [9] | viability, T/C [10] | viability, T/C [12] | viability, T/C [13] | viability, T/C [14] | viability, T/C [15] | viability, T/C [16] | viability, T/C [18] | viability, T/C [19] | viability, T/C [20] | viability, T/C [21] | viability, T/C [22] | viability, T/C [24] | further results |
| --- | --- | --- | --- | --- | --- | --- | --- | --- | --- | --- | --- | --- | --- | --- | --- | --- | --- | --- | --- | --- | --- |
| CC1(C)CCC(CN2CCN(c3ccc(C(=O)NS(=O)(=O)c4ccc(NCC5CCOCC5)c([N+](=O)[O-])c4)c(Oc4cnc5[nH]ccc5c4)c3)CC2)=C(c2ccc(Cl)cc2)C1 + CNCc1ccccc1-c1csc(C(C)Nc2nc(C)nc3cc(OC)c(OC)cc23)c1 | > 10 µM | 6.41 µM | 4.57 µM | < 0.0316 µM | 99.5% | 105% | 101% | 99.5% | 82.6% | 86% | 94.3% | 86.2% | 80.9% | 81.4% | 82.7% | 83.7% | 84.2% | 78.1% | 64.6% | 33.9% | IC50 [5]: < 0.0316 µM; viability, T/C [11]: 69.9%; viability, T/C [17]: 30.8%; viability, T/C [23]: 19.4%; viability, T/C [25]: 29.8%; viability, T/C [26]: 38.1%; viability, T/C [27]: 32.9%; viability, T/C [28]: 13.1%; viability, T/C [29]: 6.34%; viability, T/C [30]: 0.15%; viability, T/C [31]: 0.15%; viability, T/C [32]: 0.13%; viability, T/C [33]: 0.11%; viability, T/C [34]: 0.11%; viability, T/C [35]: 0.17% |
| CC1COCCN1c1cc(-c2ccnn2C)c2ccnc(-c3ccn[nH]3)c2n1 (configuration not stated) + C=CC(=O)N1CCN(c2nc(OCC3CCCN3C)nc3c2CCN(c2cccc4cccc(C)c24)C3)CC1CC#N | > 3.16 µM | > 3.16 µM | > 3.16 µM | 0.129 µM | 93.1% | 90.7% | 59.7% | 66.9% | 60.6% | 93% | 83% | 53.8% | 55.7% | 62.9% | 94.4% | 75.5% | 48.8% | 51% | 59.2% | 90% | IC50 (curve of first compound, second compound 0.0316 µM): > 3.16 µM; viability, T/C (second compound 0.0316 µM, first compound 0.01 µM): 115%; viability, T/C (second compound 0.0316 µM, first compound 0.0316 µM): 101%; viability, T/C (second compound 0.0316 µM, first compound 0.1 µM): 87.1%; viability, T/C (second compound 0.0316 µM, first compound 0.316 µM): 67.6%; viability, T/C (second compound 0.0316 µM, first compound 1 µM): 60.5%; viability, T/C (second compound 0.0316 µM, first compound 3.16 µM): 64.5%; viability, T/C [36]: 94.1%; viability, T/C [37]: 117%; viability, T/C [38]: 101%; viability, T/C [39]: 80.2%; viability, T/C [25]: 53.3%; viability, T/C [26]: 30.6%; viability, T/C [27]: 37.8%; viability, T/C [28]: 47.8% |
| CC1OCC2(CCN(c3cnc(Sc4ccnc(N)c4Cl)c(N)n3)CC2)C1N (configuration not stated) | – | – | – | – | – | – | – | – | – | – | – | – | – | – | – | – | – | – | – | – | viability, T/C (compound 0.0316 µM): 90.6% and 111% and 96.5%; IC50 (curve of compound): > 10 µM |
| O=C(c1cc(Cc2n[nH]c(=O)c3ccccc23)ccc1F)N1CCN(C(=O)C2CC2)CC1 + C=CC(=O)N1CCN(c2nc(=O)n(-c3c(C)ccnc3C(C)C)c3nc(-c4c(O)cccc4F)c(F)cc23)C(C)C1 | > 10 µM | > 10 µM | > 10 µM | > 10 µM | 101% | 93% | 102% | 94.9% | 95% | 95.7% | 105% | 84.8% | 101% | 92.4% | 88.6% | 91% | 83% | 97.2% | 103% | 107% | IC50 [5]: > 10 µM; viability, T/C [11]: 82.2%; viability, T/C [17]: 90.3%; viability, T/C [23]: 96.7%; viability, T/C [25]: 97.8%; viability, T/C [26]: 113%; viability, T/C [27]: 98%; viability, T/C [28]: 97.8%; viability, T/C [29]: 91.8%; viability, T/C [30]: 117%; viability, T/C [31]: 105%; viability, T/C [32]: 89.4%; viability, T/C [33]: 89.5%; viability, T/C [34]: 112%; viability, T/C [35]: 93.5% |
| CC(=O)OC12COC1CC(O)C1(C)C(=O)C(O)C3=C(C)C(OC(=O)C(O)C(NC(=O)OC(C)(C)C)c4ccccc4)CC(O)(C(OC(=O)c4ccccc4)C21)C3(C)C (configuration not stated) + CC1OCC2(CCN(c3cnc(Sc4ccnc(N)c4Cl)c(N)n3)CC2)C1N | 0.0204 µM | < 0.01 µM | 0.0271 µM | < 0.01 µM | 39.5% | 26.3% | 23.2% | 27.5% | 21.8% | 29.2% | 18.4% | 19.2% | 20.3% | 18.1% | 42% | 31.2% | 24% | 21% | 21.7% | 18% | IC50 [5]: < 0.01 µM; viability, T/C [36]: 68.7%; viability, T/C [37]: 48.8%; viability, T/C [38]: 92%; viability, T/C [39]: 19.8%; viability, T/C [25]: 11.9%; viability, T/C [26]: 11.7%; viability, T/C [27]: 14.8%; viability, T/C [28]: 12.5%; viability, T/C (second compound 10 µM, first compound 0.01 µM): 20%; viability, T/C [30]: 14.4%; viability, T/C [31]: 13.3%; viability, T/C [32]: 12.8%; viability, T/C [33]: 10.5%; viability, T/C [34]: 11.8% |
| COC(=O)c1ccc2c(C(=Nc3ccc(N(C)C(=O)CN4CCN(C)CC4)cc3)c3ccccc3)c(O)[nH]c2c1 + C=CC(=O)N1CCN(c2nc(=O)n(-c3c(C)ccnc3C(C)C)c3nc(-c4c(O)cccc4F)c(F)cc23)C(C)C1 | > 10 µM | 5.61 µM | 5.47 µM | 4.8 µM | 124% | 115% | 98.4% | 98.2% | 86.8% | 100% | 99.4% | 92.3% | 92.7% | 83.7% | 121% | 108% | 96.7% | 92.9% | 75.5% | 104% | IC50 [5]: 4.3 µM; viability, T/C [11]: 60.1%; viability, T/C [17]: 15.8%; viability, T/C [23]: 26.1%; viability, T/C [25]: 108%; viability, T/C [26]: 91%; viability, T/C [27]: 90.2%; viability, T/C [28]: 76.2%; viability, T/C [29]: 9.17%; viability, T/C [30]: 111%; viability, T/C [31]: 116%; viability, T/C [32]: 101%; viability, T/C [33]: 86.9%; viability, T/C [34]: 73.4%; viability, T/C [35]: 0.56% |
